The values below come from PubChem BioAssay AID179 (DTP/NCI, 2004).

The assay deals with CEM cells HIV-1 protection, formazan growth assay. Briefly: NCI AIDS Antiviral Assay. Conditions: for IC50: measured here: growth of uninfected CEM cells. Put shortly: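 Protection of CEM cells against HIV-1 measured as cell growth via soluble formazan read-out, with five concentrations tested on both infected and uninfected cells; failure to protect may reflect toxicity.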

Active and inactive are the calls of the source.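 The calls were made as follows: active = compounds giving half or more protection of infected cells from virus-caused growth loss, again on retest; inactive = the rest.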 Where only a bound is given, the exact number is not on record here.

As usually defined, the EC50 is the concentration that produces a half-maximal response. The term IC50 denotes the concentration that inhibits the measured activity by half. Lower therefore signals greater potency in that assay.

On to `CCOC(=O)c1ccc(NCc2ccc3nc(OC)c(OC)nc3c2)cc1`, for which the EC50 is greater than 100 µM and the IC50 was greater than 100 µM.
As for `Cc1cn(C2CC3C(COC(=O)N3O)O2)c(=O)[nH]c1=O` (centres undefined), the EC50 was 50.1 µM and the IC50 is greater than 200 µM.
On the same counts, the results for `Cc1cc(C)c2c(c1)CC1(Cc3ccc(C)c(C)c3C1=O)C2=O` (centres undefined) are greater than 100 µM and greater than 100 µM.
On the same counts, the results for `COc1cccc(/C=N\N=C\c2cccc(OC)c2O)c1O` are greater than 200 µM and 66.1 µM.
On to `Cc1ccc2c(n1)C(N1CCOCC1)=CC(=O)C2=O`, for which the result was inactive.
With `C=CS(=O)(=O)O`, the EC50 is greater than 200 µM and the IC50 was greater than 200 µM.
For `CN(C)CCOc1ccc(-c2c(Oc3ccc(Cl)cc3)c(=O)oc3ccccc23)cc1`, the EC50 was greater than 200 µM and the IC50 amounted to 8.13 µM.
For the molecule `COc1ccc2c(c1)c1c(n2CCN2CCOCC2)-c2cccc(OC)c2CC1`, the result was inactive.
As for `CCCCCCCCCCCCCCCC(O)S(=O)(=O)O` (centres undefined), the EC50 is greater than 100 µM and the IC50 was found to be 15.1 µM.
As to `CC(C)N([PH2+]N(C(C)C)C(C)C)C(C)C.[C-]#[O+].[C-]#[O+].[C-]#[O+].[C-]#[O+].[C-]#[O+].[Mo]`, the EC50 was greater than 77.6 µM and the IC50 is greater than 77.6 µM.
As to `CS[C@]12[C@@H]3C(=O)N(C)C(=O)[C@@H]3[C@](C)(C(=O)N1C)C(=O)N2c1ccccc1`, the EC50 is greater than 200 µM and the IC50 is greater than 200 µM.
As to `COC(OC)c1c2c(O)c3c(O)c(C)c4c(c3c1O)C(=O)C(C)(O/C=C/C(OC)C(C)C(OC(C)=O)C(C)C(O)C(C)C(O)C(C)/C=C/C=C(/C)C(=O)N2)O4` (centres undefined), the EC50 is greater than 200 µM and the IC50 came out at 25.1 µM.
As for `O=C1CCCC(=O)N2c3ccc(cc3)CSCCSCc3ccc(cc3)N12`, the outcome was inactive.
With `CC(=O)OCC1C(C(C)OC(C)=O)CCC2C1CCC1(C)C(OC(C)=O)CCC21` (centres undefined), the EC50 was greater than 20.4 µM and the IC50 is 16.6 µM.
On the same counts, the results for `COC(=O)c1cc2/c(=N/O)c3ccccc3sc2o1` are greater than 200 µM and greater than 200 µM.
With `C[Si](C)(C)OC=C1CCCCC1`, the EC50 was greater than 200 µM and the IC50 is greater than 200 µM.
On to `CC(=O)OC(OC(C)=O)c1ccc2ccc3cccc4ccc1c2c34`, for which the EC50 was greater than 200 µM and the 50% inhibitory concentration (IC50) worked out at 34.7 µM.
The corresponding values for `COC(=O)C1=C(C(=O)OC)C23CC4CCC2(C(=O)C1O3)C4(C)C` (centres undefined) are greater than 251 µM and 16.6 µM.
`CC(=O)NC(C)(C)C1CCC(C)CC1` (centres undefined): the EC50 was greater than 200 µM and the IC50 was greater than 200 µM.
As for `O=c1[nH]c(N/N=C\C(=N/Nc2nc3ccccc3c(=O)[nH]2)C(O)C(O)C(O)CO)nc2ccccc12` (centres undefined), the EC50 is greater than 200 µM and the IC50 was greater than 200 µM.
With `C/C(C=O)=C\c1ccc([N+](=O)[O-])cc1`, the EC50 was greater than 135 µM and the IC50 stood at 75.9 µM.
The corresponding values for `Nc1nn2cc3c(nc2c1N=Nc1ccccc1)-c1ccccc1CC3` are greater than 200 µM and greater than 200 µM.
The corresponding values for `COc1ccc(C(=O)/C=C/c2ccc(OCCCCCCCCCCOc3ccc(/C=C/C(=O)c4ccc(OC)cc4)cc3)cc2)cc1` are greater than 200 µM and greater than 200 µM.
Take `CN1C(=O)C(O)CC1c1ccc(C(F)(F)F)cc1` (centres undefined): the result was inactive.
Take `COc1ccc(-c2nc(-c3cnccn3)n(COCCO)n2)cc1`: the EC50 is greater than 200 µM and the IC50 is greater than 200 µM.
`CCOP(=O)(CN1CCNCCN(CP(=O)(OCC)OCC)CC1)OCC`: the EC50 is greater than 100 µM and the IC50 was greater than 100 µM.
As to `C=CCSS/C=C/CS(=O)CC=C` (centres undefined), the EC50 was greater than 81.3 µM and the IC50 worked out at 0.692 µM.
The corresponding values for `CCCCCCCCCC[C@@H](OC(C)=O)[C@@H]1CC[C@@H]([C@@H]2CC[C@@H]([C@@H](O)CC#C/C=C/CCCCCCC[C@@]3(Sc4ccccc4)C[C@H](C)OC3=O)O2)O1` are greater than 200 µM and 182 µM.
The corresponding values for `C=C(C)C1CCC2(C)OC2C1` (centres undefined) are greater than 200 µM and greater than 200 µM.
